Read-outs that look alike come from different tables or passages of the source. Where no end group is shown, it is not given here.
How the values were obtained:
HepG2 cells [1] = assay: Biochemical indicators (ALT, AST, TC, TG, HDL-C, LDL-C) in alcoholic damaged HepG2 cells; format: cell-based, human; conditions: 3 mM (positive control); 500 mM ethanol-damaged HepG2
Experimental: (§1) HepG2 cells are collected, digested, centrifuged, and resuspended. The HepG2 cells are then seeded into a 6-well plate at a density of 1×10^6 cells per well, with 1.6 mL of cell suspension added to each well. After incubating the plate in a 37° C., 5% CO2 incubator for 24 hours, 200 μL of distilled water is added to the blank wells as the blank group. Referring to Section 1.2.2.2 and the preparation of blank group cell sample, an anhydrous ethanol-induced damage model is established. The HepG2 cells are damaged with 500 mM anhydrous ethanol for 24 hours. The model group receives 200 μL of distilled water, while the positive control wells receive 200 μL of NAC at a final concentration of 3 mM. The treatment wells receive 200 μL of the modified peptide derived from Urechis unicinctus of F2-1 at final concentrations of 200 μM, 300 μM, and 400 μM (dissolved in water). After adding the modeling solution, the plate is incubated in a 37° C., 5% CO2 incubator for an additional 24 hours. The 6-well plate is then taken out and placed on ice. All liquids in the wells are discarded, and the cells are washed three times with pre-chilled phosphate buffer solution (PBS). High-efficiency radio immunoprecipitation assay (RIPA) lysis buffer is added, and the HepG2 cells are lysed on ice for 30 minutes. The lysates are then centrifuged at 12,000 rpm for 10 minutes at low temperature, and the white precipitate is discarded.
Reagent kits are purchased from Nanjing Jiancheng Bioengineering Institute. An enzyme-linked immunosorbent assay (ELISA) plate reader is used to measure biochemical indicators such as alanine aminotransferase (ALT), aspartate aminotransferase (AST), triglycerides (TG), total cholesterol (TC), high-density lipoprotein cholesterol (HDL-C), and low-density lipoprotein cholesterol (LDL-C).

interleukin-1β (IL-1β) = assay: IL-1β content in alcoholic damaged HepG2 cells (ELISA); format: cell-based, human; conditions: 3 mM (positive control); 500 mM ethanol-damaged HepG2
Experimental: as §1, with “All liquids in the wells are discarded, and the cells are washed three times with pre-chilled phosphate buffer solution (PBS). High-efficiency radio immunoprecipitation assay (RIPA) lysis buffer is added, and the HepG2 cells are lysed on ice for 30 minutes. The lysates are then centrifuged at 12,000 rpm for 10 minutes at low temperature, and the white precipitate is discarded.” left out
(§2) ELISA kits are purchased from Hangzhou Leyi Biotechnology Co., Ltd. An ELISA plate reader is used to measure indicators such as the interleukin-1β (IL-1β) ELISA kit, interleukin-6 (IL-6) ELISA kit, and Cytochrome P450 2E1 (CYP2E1) ELISA kit.

[2] = system: Cytochrome P450 2E1 (CYP2E1); assay: CYP2E1 content in alcoholic damaged HepG2 cells (ELISA); format: cell-based, human; conditions: 500 mM ethanol-damaged HepG2
Experimental: as §1, §2

interleukin-6 (IL-6) = assay: IL-6 content in alcoholic damaged HepG2 cells (ELISA); format: cell-based, human; conditions: 3 mM (positive control); 500 mM ethanol-damaged HepG2
Experimental: as §1, with “All liquids in the wells are discarded, and the cells are washed three times with pre-chilled phosphate buffer solution (PBS). High-efficiency radio immunoprecipitation assay (RIPA) lysis buffer is added, and the HepG2 cells are lysed on ice for 30 minutes. The lysates are then centrifuged at 12,000 rpm for 10 minutes at low temperature, and the white precipitate is discarded.” left out
as §2

HepG2 cells [3] = format: cell-based; conditions: human, 24 h
Experimental: When a cell density of the cells reached 90%, the cells are digested and passaged to form a single-cell suspension. The cell concentration is determined using a hemocytometer, and the suspension is adjusted to 8×10^4 cells per well. A volume of 180 μL of the cell suspension is added to each well of a 96-well plate. The 96-well plate is then incubated in a 37° C., 5% CO2 cell incubator for 24 hours. The cells are subjected to alcoholic damage for 24 hours using gradient concentrations of anhydrous ethanol at […] (final concentrations). A blank group received no addition. All solutions in the 96-well plate are aspirated, and 100 μL of a 10% CCK-8 solution is added to each well. After incubation for 1 hour, the absorbance is measured at 450 nanometers (nm) using a microplate reader. The cell viability is calculated using the following formula: […]
HepG2 cells are collected, digested, centrifuged, and resuspended. The HepG2cells are then seeded into a 96-well plate at a density of 8×10^4 cells per well, with 160 μL of cell suspension added to each well. After incubating the plate in a 37° C., 5% CO2 incubator for 24 hours, 20 μL of distilled water is added to a blank well as the blank group. Referring to Section 1.2.2.2 and the preparation of blank group cell sample, an anhydrous ethanol-induced damage model is established. The HepG2 cells are damaged with 500 mM anhydrous ethanol for 24 hours. The model group received 20 μL of distilled water, while the positive control wells received 20 μL of N-acetylcysteine (NAC) at a final concentration of 3 mM. The treatment wells receive 20 μL of the modified peptide derived from Urechis unicinctus of F2-1 at final concentrations of 200 μM, 300 μM, and 400 μM (dissolved in water). The 96-well plate is then incubated in a 37° C., 5% CO2 incubator for 24 hours after adding the modeling solution. […] The absorbance is measured at 450 nm using a microplate reader after 1 hour of incubation. The cell viability is calculated using the following formula: […]

Row | Molecule | ALT level in HepG2 cells (HepG2 cells [1]) [U/L] | AST level in HepG2 cells (HepG2 cells [1]) [U/L] | HDL-C level in HepG2 cells (HepG2 cells [1]) [mmol/L] | LDL-C level in HepG2 cells (HepG2 cells [1]) [mmol/L] | TC level in HepG2 cells (HepG2 cells [1]) [mmol/L] | TG level in HepG2 cells (HepG2 cells [1]) [mmol/L] | IL-1β content in HepG2 cells (interleukin-1β (IL-1β)) [pg/mL] | CYP2E1 content in HepG2 cells ([2]; 3 mM (positive control)) [U/mg prot] | IL-6 content in HepG2 cells (interleukin-6 (IL-6)) [pg/mL] | CYP2E1 content in HepG2 cells ([2]; 200 μM (low dose), vs model group) | CYP2E1 content in HepG2 cells ([2]; 300 μM (medium dose), vs model group) | CYP2E1 content in HepG2 cells ([2]; 400 μM (high dose)) [U/mg prot] | cell viability (HepG2 cells [3]; 200 μM) [%] | cell viability (HepG2 cells [3]; 300 μM) [%] | cell viability (HepG2 cells [3]; 400 μM) [%]
1 | CC(=O)N[C@@H](CS)C(=O)O [NAC, N-acetylcysteine] | 7.93±0.14 | 8.26±0.30 | 0.12 ± 0.02 | 0.01 ± 0.00 | 0.06 ± 0.02 | 0.49 ± 0.00 | 123.36 ± 1.67 | 7.80±0.96 | 87.25 ± 5.30 | – | – | – | – | – | –
2 | IHVKF [F2-1, IHVKF] | – | – | – | – | – | – | – | – | – | do not significantly reduce | do not significantly reduce | 7.97±0.78 | 80.65±5.67 | 85.39±9.61 | 94.58±4.22
